What all share (type): cell-based
In series [1] the test system is HEL 299 (non-cancerous human lung fibroblast cell line). The experiment in a line: In vitro cytotoxicity, WST-1. The following applies: HEL 299, 24 h. The text has this:
(§1) Potential toxicity of NCL259 and NCL265 to mammalian cells relative to the parent compound (NCL812) was examined using Caco-2 (human colorectal adenocarcinoma cell line), HEL 299 (non-cancerous human lung fibroblast cell line), Hep G2 (human hepatocellular carcinoma cell line), MCF-7 (human mammary gland adenocarcinoma cell line), MDBK (normal Madin–Darby bovine kidney cell line) and Vero (normal adult African green monkey cell line), essentially as described previously. Toxicity to the cell lines was performed using serial two-fold dilutions of each compound from 128 to 1 μg/mL in duplicates in flat bottom 96 well tissue culture trays (Sarstedt 83.3924) containing approximately 2 × 10^4 cells per well in antibiotic-free Dulbecco’s Modified Eagle’s Medium (DMEM; Gibco Cat No: 12430; Thermo Fisher Scientific, Scoresby, VIC, Australia) consisting of 10% (v/v) fetal bovine serum at 37 °C, 5% CO2 for 24 h. Duplicate wells containing ampicillin at 128 to 1 μg/mL were used as controls. Thereafter, 10% (v/v) of the WST-1 cell proliferation assay reagent (Cat No: 05015944001; Roche Life Science, North Ryde, NSW, Australia) was added to each well, the trays were further incubated at 37 °C, 5% CO2 for 1 h and absorbance read at A450nm on a Multiskan Ascent 354 Spectrophotometer (Labsystems, Lilydale, VIC, Australia). The inhibitory concentration of each compound was determined as the half maximal inhibitory concentration (IC50) at A450nm.
(In general: Tetrazolium dyes change colour on reduction, which living cells bring about.)

For series [2], the system named is Hep G2 (human hepatocellular carcinoma cell line). The experiment in a line: In vitro cytotoxicity, WST-1. As to conditions: HepG2, 24 h.
Text: as §1

Series [3] concerns MCF-7 (human mammary gland adenocarcinoma cell line). The experiment in a line: In vitro cytotoxicity, WST-1. As to conditions: MCF7, 24 h.
Text: as §1

For series [4], the system named is MDBK (normal Madin–Darby bovine kidney cell line). The experiment in a line: In vitro cytotoxicity, WST-1. As to conditions: Bos taurus, 24 h.
Text: as §1

The test system of series [5] is Vero (normal adult African green monkey cell line). The experiment in a line: In vitro cytotoxicity, WST-1. The following applies: Chlorocebus sabaeus, 24 h.
Text: as §1

The test system of series [6] is sheep red blood cells (SRBCs). The experiment in a line: Hemolysis assay. The following applies: 1 h. How it is done: The haemolytic activity of the compounds was determined using 1% sheep red blood cells (SRBCs), as described previously. […]. After incubation at 37 °C with shaking at 100 rpm for 1 h, the trays were centrifuged at 1000× g for 3 min and 100 μL of supernatant from each well was transferred into a new 96-well tray. Absorbance was measured at A450nm on a Multiskan Ascent 354 Spectrophotometer (Labsystems) and plotted against each dilution. The haemolytic titre (HC50) of each compound was determined as the reciprocal of the dilution at which 50% of SRBCs were lysed at A450nm.

Series [7] concerns Caco-2 (human colorectal adenocarcinoma cell line). The experiment in a line: In vitro cytotoxicity, WST-1. The following applies: Caco-2, 24 h.
[8] abbreviates: first of two independent experiments.
[9] abbreviates: second of two independent experiments.

Values after ≈ are worked out from the molar mass of the structure shown.

The term IC50 denotes the point on the concentration scale where inhibition reaches its midpoint.

`CC1(C)S[C@@H]2[C@H](NC(=O)[C@H](N)c3ccccc3)C(=O)N2[C@H]1C(=O)O` [Ampicillin, reference compound]: the IC50 in series [1] (setting [8]), in series [1] (setting [9]), in series [2] (setting [8]), in series [2] (setting [9]), in series [3] (setting [8]) and in series [3] (setting [9]) was more than 128 µg/mL each time. The half-maximal inhibitory concentration (IC50) in series [4] (setting [8]), in series [4] (setting [9]), in series [5] (setting [8]) and in series [5] (setting [9]) was more than 128 µg/mL throughout. Moreover, the HC50 is listed as >128, >128 μg/mL in series [6] (1% SRBC, first of two independent experiments) and >128, >128 μg/mL in series [6] (1% SRBC, second of two independent experiments).
`N=C(N/N=C/c1ccc(Cl)cc1)N/N=C/c1ccc(Cl)cc1` [NCL812, Robenidine]: the IC50 in series [7] (setting [8]) was 8 µg/mL (≈ 23.9 µM); in series [7] (setting [9]), 12 µg/mL (≈ 35.9 µM); in series [1] (setting [8]), 8 µg/mL (≈ 23.9 µM); in series [1] (setting [9]), 6 µg/mL (≈ 18 µM); in series [2] (setting [8]), 6 µg/mL (≈ 18 µM); in series [2] (setting [9]), 8 µg/mL (≈ 23.9 µM). Further, the half-maximal inhibitory concentration (IC50) in series [3] (setting [8]) was 8 µg/mL (≈ 23.9 µM); in series [3] (setting [9]) it was 12 µg/mL (≈ 35.9 µM); in series [4] (setting [8]), 8 µg/mL (≈ 23.9 µM); in series [4] (setting [9]) it was 12 µg/mL (≈ 35.9 µM); in series [5] (setting [8]), 8 µg/mL (≈ 23.9 µM); in series [5] (setting [9]), 4 µg/mL (≈ 12 µM). Moreover, the HC50 in series [6] (sheep) is reported as 32, 32 μg/mL.
